Among the data in patent US20230333109A1, “COMPOSITION FOR DIAGNOSING INFECTIOUS DISEASES COMPRISING AGENT FOR MEASURING EXPRESSION LEVEL OF SREBP2” (KOREA RESEARCH INSTITUTE OF BIOSCIENCE AND BIOTECHNOLOGY, priority 2020, published 2023) are vascular barrier destruction values, retold here.

For this experiment, the system named is HUVECs. Briefly: Vascular barrier destruction in HUVECs under LPS stimulation (FIG. 4G). Format: cell-based.

As to `CCN(CC)Cc1ccc(C(=O)N(CCc2ccccc2OC)[C@@H]2CCNC2)cc1` [PF-429242], the vascular barrier destruction result was “inhibited vascular bather destruction”.
